Measured values: US5500344A, “Serine protease and uses thereof” (The United States of America as represented by the …, priority 1992, dated 1996)
Non-standard residues stand in square brackets, D forms with d. Residues, ends and D or L forms follow the SMILES beside them. *: point of attachment. Nle = CCCC[C@H](N)C(=O)O; Boc = CC(C)(C)OC(=O)*; SBn = c1ccc(CS*)cc1

How the values were obtained:
Format in all cases: biochemical
[1] = molecular target: T1, Asp-ase (Rattus norvegicus, UniProt P18291); assay: Initial rates of peptide thiobenzyl ester substrate hydrolysis by HPLC-purified Asp-ase; conditions: [S] 100-133 μM, 0.1 M Hepes, 0.01 M CaCl2, pH 7.5, 8% Me2SO, 25° C.
T1 construct: Asp-ase purified by HPLC as previously described; endogenous in cells; host or cells: rat RNK LGL leukemia cells, cytolytic granules, HPLC-purified (Sayers et al. 1992)
T1 sequence (P18291 21-248): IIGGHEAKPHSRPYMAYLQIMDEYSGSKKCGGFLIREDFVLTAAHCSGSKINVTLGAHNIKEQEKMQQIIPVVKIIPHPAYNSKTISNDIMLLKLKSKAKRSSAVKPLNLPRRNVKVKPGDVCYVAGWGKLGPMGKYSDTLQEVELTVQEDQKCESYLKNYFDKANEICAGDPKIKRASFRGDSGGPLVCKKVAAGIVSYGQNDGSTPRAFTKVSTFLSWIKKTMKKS
Description: (§1) Briefly, 50 μl of sample was added to 100 μl of 1 mM DTNB, made up in 10 mM Hepes, 1 mM CaCl2, 1 mM MgCl2, pH7.2. The reaction was initiated by the addition of 50 μl of BLT (Sigma) to give a final concentration of 500 μM. For Metase determinations, 50 μl of dilutions of the sample in 0.1M Hepes, 0.05M CaCl2, pH7.5 were added to 100 μl of 1 mM DTNB and the reaction was initiated by the addition of 50 μl of Boc-Ala-Ala-Met-S Benzyl (Bzl) to give a final concentration of 150 μM. The duration of the assay depended on color development, the rate of which was measured (0.D410) on a Dynatech MR 5000 microplate reader. Controls of sample and DTNB alone or DTNB and substrate alone were run. For more sensitive comparisons of enzymatic activities, peptide thiobenzyl ester substrates were used to measure protease activities. The chymase substrate Suc-Phe-Leu-Phe-SBzl was purchased from BACHEM Bioscience Inc., Philadelphia, Pa. […] Boc-Ala-Ala-Asp-SBzl is the substrate for Asp-ase and peptide thiobenzyl esters containing Met, Leu or Nle are substrates for Met-ase SP. […] The initial rates were measured at 324 nm using a Beckman 35 spectrophotometer when 10-25 μl of an enzyme stock solution was added to a cuvette containing 2.0 ml of buffer, 150 μl of 4,4'-dithiodipyridine and 25 μl of substrate. The same volume of substrate and 4,4'-dithiodipyridine were added to the reference cell in order to compensate for the background hydrolysis rate of the substrates. Initial rates were measured in duplicate for each substrate concentration and were averaged in each case.
(§2) 10 μl of enzyme solution was added to […]

[2] = molecular target: T2, Tryptase (Rattus norvegicus, UniProt P49864); assay: Initial rates of peptide thiobenzyl ester substrate hydrolysis by HPLC-purified Tryptase (HPLC fraction 56); conditions: 10 μl enzyme solution (HPLC fraction 56); [S] 100-133 μM; pH 7.5, 25° C.
T2 construct: The BLT-esteraseactivity was found in fractions 49 and 56; endogenous in cells; host or cells: rat RNK-16 NK/LGL leukemia cells, cytolytic granules, HPLC fraction 56
T2 sequence (P49864 26-258): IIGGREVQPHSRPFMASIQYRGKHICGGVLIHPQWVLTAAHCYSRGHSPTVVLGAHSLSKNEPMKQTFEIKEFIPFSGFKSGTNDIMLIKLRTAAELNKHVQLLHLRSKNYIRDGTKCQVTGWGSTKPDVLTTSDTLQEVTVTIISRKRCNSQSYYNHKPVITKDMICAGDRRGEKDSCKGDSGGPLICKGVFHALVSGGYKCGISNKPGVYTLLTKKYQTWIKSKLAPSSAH
Description: as §1, §2

[3] = molecular target: T3, Met-ase (Rattus norvegicus, UniProt Q03238); assay: Initial rates of peptide thiobenzyl ester substrate hydrolysis by HPLC-purified Met-ase (HPLC fraction 104); conditions: [S] 100-133 μM, pH 7.5, 25° C.
T3 construct: endogenous in cells; host or cells: rat RNK-16 LGL leukemia cells, cytolytic granules, HPLC fraction 104
T3 sequence (Q03238 21-258 limits assumed): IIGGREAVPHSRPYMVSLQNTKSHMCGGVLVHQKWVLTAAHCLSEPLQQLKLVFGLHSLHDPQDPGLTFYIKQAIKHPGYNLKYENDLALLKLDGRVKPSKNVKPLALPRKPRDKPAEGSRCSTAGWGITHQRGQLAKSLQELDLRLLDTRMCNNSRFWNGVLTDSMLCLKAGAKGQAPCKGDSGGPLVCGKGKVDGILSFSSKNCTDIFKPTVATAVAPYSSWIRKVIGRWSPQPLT
Description: as §1, §2

[4] = 10 μl enzyme solution (HPLC fraction 104)
[5] = 25 μl enzyme solution (HPLC fraction 104)

Row | SMILES | Initial Rates, Asp-ase ([1]; 10 μl enzyme solution) | Initial Rates, Asp-ase ([1]; 25 μl enzyme solution) | Initial Rates, Tryptase [2] | Initial Rates, Met-ase [3, 4] | Initial Rates, Met-ase [3, 5]
1 | C[C@H](NC(=O)OC(C)(C)C)C(=O)N[C@@H](C)C(=O)N[C@@H](CC(=O)O)C(=O)SCc1ccccc1 [Boc--Ala--Ala--Asp--SBz1, Boc-Ala-Ala-Asp-SBzl] (Boc-Ala-Ala-Asp-SBn) | 12.6 nM/s | 44.6 nM/s | 0 nM/s | 0 nM/s | –
2 | CC(C)C[C@H](NC(=O)[C@H](C)NC(=O)[C@H](C)NC(=O)OC(C)(C)C)C(=O)SCc1ccccc1 [Boc--Ala--Ala--Leu--SBz1] (Boc-Ala-Ala-Leu-SBn) | – | – | – | 2.9 nM/s | –
3 | CSCC[C@H](NC(=O)[C@H](C)NC(=O)[C@H](C)NC(=O)OC(C)(C)C)C(=O)SCc1ccccc1 [Boc--Ala--Ala--Met--SBz1, Boc-Ala-Ala-Met-S Benzyl (Bzl)] (Boc-Ala-Ala-Met-SBn) | 0 nM/s | – | 0 nM/s | 4.2 nM/s | 13.7 nM/s
4 | CCCC[C@H](NC(=O)[C@H](C)NC(=O)[C@H](C)NC(=O)OC(C)(C)C)C(=O)SCc1ccccc1 [Boc--Ala--Ala--Nle--SBz1] (Boc-Ala-Ala-[Nle]-SBn) | – | – | – | 3.9 nM/s | 15.2 nM/s
5 | C[C@H](NC(=O)OC(C)(C)C)C(=O)N[C@@H](C)C(=O)N[C@@H](CO)C(=O)SCc1ccccc1 [Boc--Ala--Ala--Ser--SBz1] (Boc-Ala-Ala-Ser-SBn) | 1.3 nM/s | 6.7 nM/s | 0.4 nM/s | 0 nM/s | –
